According to patent US20200383327A1, “METHOD OF IMPROVING PLANT PERFORMANCE” (The State of Israel, Ministry of Agriculture & Rural …, priority 2018, published 2020):

Assays:
Assay type in all cases: in vivo
Tetranychus urticae = assay: Red spider mite damage on tomato plants, natural infestation in greenhouse; details: 4 mM Phe solution, drench or spray, each treatment; AUDPC during 30 days; FIG. 9
Description: FIG. 9 is a bar graph showing the effect of 4 mM Phe solution on the severity of Tetranychus urticae red spider mite on leaves of tomato plants. The Phe solution was applied by spraying and by drench on the tomato plants at 3 days before and 4 hours before incubation in the greenhouse. Symptoms severity was evaluated on a scale of 0-100% severity of symptoms coverage during 30 days after treatment and it is expressed as the area under disease progress curve (AUDPC).
The red spider mite Tetranychus urticae Koch, (also two-spotted spider mite) occurred naturally on the treated tomato plants. The plants were kept in a greenhouse with 18-28° C. Typical scratching symptoms severity were evaluated on each plant; 0=no infection (all leaves are symptomless) and 100=leaves were fully covered by symptoms.

Oidiopsis sicula = assay: Oidiopsis powdery mildew on tomato plants; details: 4 mM Phe solution, drench or spray, each treatment; 24 days after treatment; FIG. 12
Description: FIG. 12 is a bar graph showing the effect of 4 mM Phe solution on the severity of Oidiopsis sicula powdery mildew on tomato plants. The Phe solution was applied by spraying and by drench on the tomato plants at 3 days before and 4 hours before incubation in the greenhouse Incidence of Oidiopsis powdery mildew was evaluated 24 days after treatment.
Conidia of Oidiopsis sicula were collected from leaves of a diseased plant, suspended in water and sprayed on the tomato plants. The plants were kept in a greenhouse with 18-28° C. Disease severity of Oidiopsis powdery mildew was evaluated on a scale of 0-100% where 100=all leaves covered by disease symptoms.

Botrytis cinerea = assay: Tomato gray mold severity on leaves of tomato plants
Description: Plants of tomato (Solanum esculentum) and cucumber (Cucumis sativus) were grown from seeds in a nursery and transplanted into 1-liter pots at 40 to 50 days after seeding in an unheated greenhouse. Plants were fertilized proportionally with drippers 2-3 times per day with 5:3:8 NPK fertilizer (irrigation water was planned to have total N, P and K concentrations of 120, 30 and 150 mg/L, respectively; EC 2.2 dS/m), allowing for 25-50% drainage. Plants were maintained at 20 to 30° C. with natural light, and relative humidity of 50-90% in a pest- and disease-free greenhouse during the growth period and then transferred to an area where diseases were allowed to develop following pathogen infection on intact leaves as described below.
Treatments in experiments were replicated 5-10 times. Replicates of each treatment were arranged randomly. Disease severity data in percentages were arcsin-transformed before further analysis. Disease severity data were analyzed using ANOVA and Fisher's protected LSD test. Standard errors (SE) of the means were calculated and disease levels were statistically separated (P≤0.05) following a one-way analysis of variance. A control experiment presents the severity of the disease with application of only water without the Phe.
Gray mold inducing pathogen Botrytis cinerea [Pers.:Fr. [Teleomorph: Botryotinia fuckeliana (de Bary) Whetzel] (isolate BcI16; [Swartzberg D. et al., Eur. J. Plant Pathol., 2008, 120:289-297])] was cultured on potato dextrose agar (PDA, Difco, Detroit, Mich.) in 90 mm diam. petri dishes containing 15 ml PDA each and incubated at 20° C. The inoculum was maintained on PDA and transferred every two weeks. Gray mold conidia were harvested from 10 to 14-day-old cultures by agitating 1 cm^2 of agar bearing mycelium and conidia in a glass tube with tap water. The suspension was then filtered through cheesecloth. The concentration of conidia was determined using a hemocytometer and a light microscope, and adjusted to 5×10^5 conidia/ml. Since B. cinerea conidia need carbon and phosphate for germination and penetration, 0.1% glucose was added to the final conidial suspension together with 0.1% KH2PO4. […] Plant attached tomato leaves were examined. Whole plants were kept in a humidity chamber at 20±1° C., 97±3% RH, and 1,020 lux light intensity. Plants were infected by spraying the whole plant with 2 ml of a 5×10^5 conidia/ml suspension or were infected after wounding with a needle and dropping 10 μL drops of conidia suspension prepared as mentioned above. Disease severity was evaluated on each plant using a pictorial key; 0=no infection (all leaves are symptomless) and 100=all leaves are fully covered by gray mold symptoms.

[1] = Strawberry fruit decay after pre-harvest treatment; details: 1-4 mM solution 3 weeks pre-harvest, FIG. 18
Description: FIG. 18 is a graph showing the effect of Phe solution on fruit pre-harvest decay. […] Decay was monitored and documented over a period of 12 days.
Strawberry plants were treated with 1-4 mM solution 3 weeks pre-harvest.

Powdery Mildew = assay: Powdery mildew incidence per inflorescence in mango orchard sprayed during flowering; details: application during orchard flowering; FIG. 23A
Source text: (§1) FIGS. 23A-C: Effect of flowering application on disease incidence. Avocado and Mango cv. ‘Kent’ orchards were sprayed with fungicide (Pyrimethanil+Fludioxonil) or with phenylalanine during flowering. (FIG. 23A). Powdery Mildew incidence (percentage) per inflorescence in mango orchard. (FIG. 23B). Anthracnose incidence (percentage) on harvested mango stored at ambient temperature for 12 days. (FIG. 23CB). Anthracnose incidence (percentage) on harvested avocado stored at ambient temperature for 14 days.
(§2) Flowering is one of the more susceptible organs of the tree. Pathogenic fungi can penetrate during flowering and either infect the flower (e.g., powdery mildew) or endophytically colonize the stem and the fruit without causing any visible symptoms. Those fungi (e.g. Colletotrichum and Lasiodiplodia) become active during abiotic stress or during fruit ripening and cause fruit stem-end rot and anthracnose.

Anthracnose = Anthracnose incidence on harvested avocado after orchard flowering spray; details: application during orchard flowering; stored at ambient temperature for 14 days; FIG. 23
Source text: as §1, §2

N[C@@H](Cc1ccccc1)C(=O)O [Phe, Phenylalanine]
Severity of damage of the Tetranychus urticae red spider mite on tomato leaves (Tetranychus urticae): significantly suppressed | Severity of Oidiopsis powdery mildew on tomato leaves (Oidiopsis sicula): significantly suppressed | Disease control effect on severity of tomato gray mold (Botrytis cinerea; 4 mM vs 2 mM Phe, drench to the root zone, FIG. 14): significantly better disease control effect than 2 mM | Disease control effect on severity of tomato gray mold (Botrytis cinerea; 4 mM vs 2 mM Phe, sprayed or drenched, wound infection, 1-4 mM series, FIG. 16): significantly better disease control effect than 2 mM | Disease control effect on severity of tomato gray mold (Botrytis cinerea; 4 mM vs 2 mM Phe, sprayed or drenched, wound infection, 2-4 mM series, FIG. 17): significantly better disease control effect than 2 mM | Disease control effect on severity of tomato gray mold (Botrytis cinerea; 4 and 8 mM vs 2 mM Phe, sprayed, FIG. 15): significantly better disease control effect than 2 mM | Amount of rotten fruits (decay incidence) [1]: substantially reduced amount of rotten fruits | Mango powdery mildew (Powdery Mildew): reduced | Postharvest anthracnose in avocado (Anthracnose): reduced
